# Source: patent publication US20230151363A1, “MODIFIED SHORT-INTERFERING RNA COMPOSITIONS AND THEIR USE IN THE TREATMENT OF CANCER” (THE RESEARCH FOUNDATION FOR THE STATE UNIVERSITY OF NEW YORK, priority 2020, published 2023)
# Test system: BCL-2 protein
# Test: Western immunoblot analysis of BCL-2 protein
# Type: cell-based, human
# Conditions: cancer cells treated with 5-FU alone
# Description: Western immunoblot analysis. Twenty-four hours prior to transfection 1×10^5 cells were plated in 6 well plates. Cells were either transfected using Oligofectamine (Thermo Fischer) or no transfection vehicle, with 50 nM control (scrambled) siRNA (Thermo Fischer), unmodified siBCL2 or an exemplary modified siBCL2 siRNA. Three days following transfection protein was collected in RIPA buffer with protease inhibitor (Sigma). Equal amounts of protein (15 μg), were separated on 12% sodium dodecyl sulfate-polyacrylamide gels as described in Laemmli U K. Nature. 1970; 227(5259) pp. 680-685, the entire contents of which is incorporated herein by reference. Proteins were probed with anti-BCL2 antibody (1:1000) (Thermo Fischer) and anti-GAPDH antibody (1:100000) (Santa Cruz). Horseradish peroxidase conjugated secondary antibodies against mouse or rabbit (1:5000, Santa Cruz Biotech Inc.) were added. Protein bands were then visualized with autoradiography film using SuperSignal West Pico Chemiluminescent Substrate (Thermo Fischer).
smiles,measurement,value
"O=c1[nH]cc(F)c(=O)[nH]1 [5-FU, 5-fluoro-1H-pyrimidine-2,4-dione]",BCL-2 expression (Western blot),does not result in reduction of BCL-2 expression
